The text below walks through data of paper PMC7104285, “Enzymatic Degradation of p-Nitrophenyl Esters, Polyethylene Terephthalate, Cutin, and Suberin by Sub1, a Suberinase Encoded by the Plant Pathogen Streptomyces scabies” (Microbes and Environments, 2020).

In general, Km refers to the concentration of substrate that gives half-maximal velocity.

Molecules are shown by their SMILES.

This experiment deals with T1, Sub1.
T1 construct: signal peptide removed; pET-30a(+) NcoI/XhoI, His6-tagged (tag kept), expressed in E. coli SHuffle T7
Kind of experiment: spectrophotometric p-nitrophenol release at […] nm, Michaelis-Menten fit. The class given is biochemical, Streptomyces scabiei. As to conditions: Tris-HCl 20 mM, pH 7.5, room temperature; Triton X-100 (0.5%) apparently present.

For `CCCC(=O)Oc1ccc([N+](=O)[O-])cc1` [p-nitrophenyl butyrate], the Km was 570 ± 40 µM.
